Experimental data: patent US4464385A, “Treatment of diabetic complications with hydantoins” (Alcon Laboratories, Inc., priority 1982, dated 1984)

Key:
[1] = molecular target: T1, aldose reductase enzyme obtained from human placenta (Homo sapiens, UniProt P15121); experiment: Inhibition of partially purified aldose reductase from human placenta; assay type: biochemical; conditions: for IC50: HUMAN, human placenta enzyme, read-out: IC50 (concentration of drug that inhibits 50% of the enzyme activity)
T1 construct: partially purified aldose reductase enzyme obtained from rat lens or human placenta; from tissue; host or cells: human placenta
Procedure: The spiro-hydantoin compounds of Preparations C and D were tested for their ability to reduce or inhibit aldose reductase enzyme activity via the procedures of P. F. Kador et. al. as described in Biophysical Chemistry, 8 (1978) 81-85 and P. F. Kador et. al. as described in Documenta Ophthamologicia, 18 (1979) 117. In every case the […] employed was partially purified aldose reductase enzyme obtained from rat lens or human placenta.

[2] = system: membrane bound cytochrome containing oxidoreductase enzymes; experiment: In vivo conversion of the methylthio group to methylsulfinyl; conditions: enzymes common to liver, kidney and lung
[3] = molecular target: T2, aldose reductase enzyme obtained from rat lens (Rattus norvegicus, UniProt P07943); experiment: Inhibition of partially purified aldose reductase from rat lens; assay type: biochemical; conditions: read-out: IC50 (concentration of drug that inhibits 50% of the enzyme activity)
T2 construct: partially purified aldose reductase enzyme obtained from rat lens; from tissue; host or cells: rat lens
From the text: In every case the substrate employed was partially purified aldose reductase enzyme obtained from rat lens or human placenta.

Row | Compound | IC50 [1] | conversion of methylthio group to methylsulfinyl derivative [2] | IC50 [3] | in vitro inhibition of human placental aldose reductase ([1]; in vitro)
1 | dl-spiro-(6-methylthio-chroman-4,4'-imidazolidine)-2',5'-dione | 660 nM | converted to the methylsulfinyl derivative | 270 nM | 
2 | C[S+]([O-])c1ccc2c(c1)C1(CCO2)NC(=O)NC1=O (centres unmarked) [D, spiro-(6-methylsulfinylchroman-4,4'-imidazolidine)-2',5'-dione] | 12000 nM |  |  | inhibit human placental aldose reductase
